Data reported in patent publication US20250129054A1 (Terran Biosciences Inc., priority 2022, published 2025).
Values joined by “and” are separate entries in the source; they are usually repeats but may differ in a detail not shown here. Equal values may be shown once. Read-outs that look alike come from different tables or passages of the source.

Columns and labels:
[1] = Serial tail vein bleed PK study in SD rats: methylone measured in plasma after IV or oral methylone or oral methylone prodrugs; type: in vivo, Sprague Dawley rats; conditions: methylone in plasma, male SD rats; for half-life: read-out: T½ (converted)
How it was run: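 Three male Sprague-Dawley rats received methylone at 1 mg/kg IV (saline) or 10 mg/kg PO, or prodrugs at 10 mg/kg PO in 10% DMSO/20% PEG400/70% water, doses as methylone equivalents. Methylone measured in serial plasma samples. Non-compartmental PK parameters derived from nominal doses.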

[2] = cited from earlier work
[3] = male, Sprague-Dawley, rat, plasma, iv, 1 mg/kg, methylone 1 mg/kg IV, individual animals
[4] = male, Sprague-Dawley, rat, plasma, iv, 1 mg/kg, methylone 1 mg/kg IV, mean
[5] = male, Sprague-Dawley, rat, plasma, po, 10 mg/kg, methylone 10 mg/kg oral, individual animals
[6] = male, Sprague-Dawley, rat, plasma, po, 10 mg/kg, methylone 10 mg/kg oral, mean
[7] = methylone 1 mg/kg IV, individual animals
[8] = methylone 10 mg/kg oral, individual animals

## CNC(C)C(=O)c1ccc2c(c1)OCO2 (racemic) [Methylone, 3,4-methylenedioxy-N-methylcathinone, reference compound]
[1]; [3]
  AUC(0-t): 163 ng·h/mL
  half-life: 24.6 min
[1]; male, Sprague-Dawley, rat, plasma, iv, 1 mg/kg, methylone 1 mg/kg IV, individual animals, read-out: AUC0-inf
  AUC(0-inf): 168 ng·h/mL
[1]; male, Sprague-Dawley, rat, plasma, iv, 1 mg/kg, methylone 1 mg/kg IV, individual animals, read-out: Cmax
  Cmax: 192 ng/mL
[1]; male, Sprague-Dawley, rat, plasma, iv, 1 mg/kg, methylone 1 mg/kg IV, individual animals, read-out: Tmax
  Tmax: 15 min
[1]; [4]
  AUC(0-t): 142 ng·h/mL
  half-life: 23.7 min
[1]; male, Sprague-Dawley, rat, plasma, iv, 1 mg/kg, methylone 1 mg/kg IV, mean, read-out: AUC0-inf
  AUC(0-inf): 145 ng·h/mL
[1]; male, Sprague-Dawley, rat, plasma, iv, 1 mg/kg, methylone 1 mg/kg IV, mean, read-out: Cmax
  Cmax: 172 ng/mL
[1]; male, Sprague-Dawley, rat, plasma, iv, 1 mg/kg, methylone 1 mg/kg IV, mean, read-out: Tmax
  Tmax: 15 min
[1]; [5]
  AUC(0-t): 636 ng·h/mL
  half-life: 135 min
[1]; male, Sprague-Dawley, rat, plasma, po, 10 mg/kg, methylone 10 mg/kg oral, individual animals, read-out: AUC0-inf
  AUC(0-inf): 729 ng·h/mL
[1]; [6]
  AUC(0-t): 681 ng·h/mL
  half-life: 148 min
[1]; male, Sprague-Dawley, rat, plasma, po, 10 mg/kg, methylone 10 mg/kg oral, mean, read-out: AUC0-inf
  AUC(0-inf): 890 ng·h/mL
[1]; male, Sprague-Dawley, rat, plasma, po, 10 mg/kg, methylone 10 mg/kg oral, mean, read-out: Cmax
  Cmax: 170 ng/mL
[1]; male, Sprague-Dawley, rat, plasma, po, 10 mg/kg, methylone 10 mg/kg oral, mean, read-out: Tmax
  Tmax: 70.2 min
[1]; [7]
  AUC0-last: 134 ng·h/mL and 128 ng·h/mL
  AUC(0-inf): 136 ng·h/mL and 131 ng·h/mL
  Cmax: 165 ng/mL and 159 ng/mL
  Tlast: 2.0 h
  T½: 22.8 min and 24 min
[1]; methylone 1 mg/kg IV, mean
  Tlast: 2.0 h
[1]; [8]
  AUC0-last: 520 ng·h/mL and 888 ng·h/mL
  AUC(0-inf): 1050 ng·h/mL
  Cmax: 130 ng/mL and 119 ng/mL and 260 ng/mL
  Tlast: 7.00 h
  Tmax: 60 min and 120 min and 30 min
  T½: 160 min
[1]; methylone 10 mg/kg oral, mean
  Tlast: 7.00 h
[2]; after oral dosing, Poyatos et al., 2021
  reported time to achieve peak effects: 1 to 2 h
[2]; human, oral, modified from WHO 2014
  Oral Methylone Dose for Drug Activity Level Very Strong: ≥270 mg
[2]; re-dose of one-third to one-half the initial dose, WHO 2014
  prolongation of duration of effects by re-dose: approximately one
